From PubChem BioAssay AID1963963 (Molecular Pharmacology Branch, DTP, NCI, 2024)

Test system: 958667-338-R-J2-PDC tumor spheroids viability
Assay: Anticancer human tumor 958667-338-R-J2-PDC patient-derived colon adenocarcinoma cell line growth inhibition [PI3K]
Settings: spheroids with HUVEC and MSC; for IC50: curve of first compound; for viability, T/C: stronger effect = lower value
In short: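 High-throughput combination screen: PI3K inhibitors crossed with targeted small molecules on complex spheroids of tumor cells, HUVEC and MSCs at 37 degrees C, 5% CO2. Top concentration was at or near clinical Cmax (otherwise 10 microM), with half-log decrements.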

[1] = second compound 0.0316 µM, first compound 0.0316 µM
[2] = second compound 0.0316 µM, first compound 0.1 µM
[3] = second compound 0.1 µM, first compound 0.0316 µM
[4] = second compound 0.1 µM, first compound 0.1 µM
[5] = second compound 0.316 µM, first compound 0.0316 µM
[6] = second compound 0.316 µM, first compound 0.1 µM
[7] = second compound 1 µM, first compound 0.0316 µM
[8] = second compound 1 µM, first compound 0.1 µM
[9] = second compound 3.16 µM, first compound 0.0316 µM
[10] = second compound 3.16 µM, first compound 0.1 µM
[11] = second compound 10 µM, first compound 0.0316 µM
[12] = second compound 10 µM, first compound 0.1 µM
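Further: spheroids exposed to compounds for seven days before readout.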

With `C[C@@H](NC(=O)c1ncnc(N)c1Cl)c1ncc(C(=O)Nc2cc(C(F)(F)F)c(Cl)cn2)s1` + Cc1nc(NC(=O)N2CCCC2C(N)=O)sc1-c1ccnc(C(C)(C)C(F)(F)F)c1 the IC50 (second compound 0.0316 µM) was over 10 µM, the IC50 (second compound 0.1 µM) was over 10 µM and the IC50 (second compound 0.316 µM) was over 10 µM. The IC50 (second compound 1 µM) was over 10 µM, the IC50 (second compound 3.16 µM) was over 10 µM and the IC50 (second compound 10 µM) was 3.29 µM. It also gave a viability, T/C [1] of 97.2%, a viability, T/C [2] of 121% and a viability, T/C (second compound 0.0316 µM, first compound 0.316 µM) of 115%. The viability, T/C (second compound 0.0316 µM, first compound 1 µM) was 88.6%, the viability, T/C (second compound 0.0316 µM, first compound 3.16 µM) was 87.8% and the viability, T/C (second compound 0.0316 µM, first compound 10 µM) was 89.2%. It also gave a viability, T/C [3] of 119%, a viability, T/C [4] of 126% and a viability, T/C (second compound 0.1 µM, first compound 0.316 µM) of 113%. The viability, T/C (second compound 0.1 µM, first compound 1 µM) was 108%, the viability, T/C (second compound 0.1 µM, first compound 3.16 µM) was 107% and the viability, T/C (second compound 0.1 µM, first compound 10 µM) was 94.9%. For the same molecule, the viability, T/C [5] was 101%, the viability, T/C [6] was 85% and the viability, T/C (second compound 0.316 µM, first compound 0.316 µM) was 106%. The viability, T/C (second compound 0.316 µM, first compound 1 µM) was 111%, the viability, T/C (second compound 0.316 µM, first compound 3.16 µM) was 94.7% and the viability, T/C (second compound 0.316 µM, first compound 10 µM) was 90.2%. The viability, T/C [7] was 87%, the viability, T/C [8] was 95.8% and the viability, T/C (second compound 1 µM, first compound 0.316 µM) was 116%. The viability, T/C (second compound 1 µM, first compound 1 µM) was 94.9%, the viability, T/C (second compound 1 µM, first compound 3.16 µM) was 81.6% and the viability, T/C (second compound 1 µM, first compound 10 µM) was 75.7%. It also gave a viability, T/C [9] of 77.9%, a viability, T/C [10] of 86.9% and a viability, T/C (second compound 3.16 µM, first compound 0.316 µM) of 82.8%. The viability, T/C (second compound 3.16 µM, first compound 1 µM) was 90.4%, the viability, T/C (second compound 3.16 µM, first compound 3.16 µM) was 89.8% and the viability, T/C (second compound 3.16 µM, first compound 10 µM) was 57.9%. For the same molecule, the viability, T/C [11] was 79.4%, the viability, T/C [12] was 82.5% and the viability, T/C (second compound 10 µM, first compound 0.316 µM) was 76.6%. For the same molecule, the viability, T/C (second compound 10 µM, first compound 1 µM) was 71.3%, the viability, T/C (second compound 10 µM, first compound 3.16 µM) was 50.7% and the viability, T/C (second compound 10 µM, first compound 10 µM) was 28.2%.
Molecule `Cn1ncnc1[C@H]1c2n[nH]c(=O)c3cc(F)cc(c23)N[C@@H]1c1ccc(F)cc1` + Cc1nc(NC(=O)N2CCCC2C(N)=O)sc1-c1ccnc(C(C)(C)C(F)(F)F)c1 has an IC50 (second compound 0.0316 µM) of over 0.1 µM, an IC50 (second compound 0.1 µM) of over 0.1 µM and an IC50 (second compound 0.316 µM) of over 0.1 µM. For the same molecule, the IC50 (second compound 1 µM) was over 0.1 µM, the IC50 (second compound 3.16 µM) was over 0.1 µM and the IC50 (second compound 10 µM) was over 0.1 µM. It also gave a viability, T/C (second compound 0.0316 µM, first compound 0.000316 µM) of 98.7%, a viability, T/C (second compound 0.0316 µM, first compound 0.001 µM) of 92% and a viability, T/C (second compound 0.0316 µM, first compound 0.00316 µM) of 113%. It also gave a viability, T/C (second compound 0.0316 µM, first compound 0.01 µM) of 106%, a viability, T/C [1] of 94.5% and a viability, T/C [2] of 107%. The viability, T/C (second compound 0.1 µM, first compound 0.000316 µM) was 98%, the viability, T/C (second compound 0.1 µM, first compound 0.001 µM) was 96.7% and the viability, T/C (second compound 0.1 µM, first compound 0.00316 µM) was 83.2%. The viability, T/C (second compound 0.1 µM, first compound 0.01 µM) was 101%, the viability, T/C [3] was 91.7% and the viability, T/C [4] was 93%. The viability, T/C (second compound 0.316 µM, first compound 0.000316 µM) was 81.4%, the viability, T/C (second compound 0.316 µM, first compound 0.001 µM) was 109% and the viability, T/C (second compound 0.316 µM, first compound 0.00316 µM) was 82.4%. The viability, T/C (second compound 0.316 µM, first compound 0.01 µM) was 102%, the viability, T/C [5] was 87% and the viability, T/C [6] was 71.2%. For the same molecule, the viability, T/C (second compound 1 µM, first compound 0.000316 µM) was 83.2%, the viability, T/C (second compound 1 µM, first compound 0.001 µM) was 86.4% and the viability, T/C (second compound 1 µM, first compound 0.00316 µM) was 101%. It also gave a viability, T/C (second compound 1 µM, first compound 0.01 µM) of 82.6%, a viability, T/C [7] of 78.4% and a viability, T/C [8] of 79.5%. It also gave a viability, T/C (second compound 3.16 µM, first compound 0.000316 µM) of 78.4%, a viability, T/C (second compound 3.16 µM, first compound 0.001 µM) of 78.7% and a viability, T/C (second compound 3.16 µM, first compound 0.00316 µM) of 85.8%. The viability, T/C (second compound 3.16 µM, first compound 0.01 µM) was 72.5%, the viability, T/C [9] was 82.8% and the viability, T/C [10] was 91.3%. For the same molecule, the viability, T/C (second compound 10 µM, first compound 0.000316 µM) was 57.9%, the viability, T/C (second compound 10 µM, first compound 0.001 µM) was 64.8% and the viability, T/C (second compound 10 µM, first compound 0.00316 µM) was 73.3%. For the same molecule, the viability, T/C (second compound 10 µM, first compound 0.01 µM) was 60.8%, the viability, T/C [11] was 72.7% and the viability, T/C [12] was 60.8%.
